Like-named read-outs stand apart in the source and are kept apart here.
Experiments:
HDAC1 = biological target: T1, HDAC1 (Homo sapiens, UniProt Q13547); assay: HDAC enzyme activity inhibition (in vitro), HDAC1 Fluorimetric Drug Discovery Assay Kit; type: biochemical
T1 construct: purchased Enzolifesciences BML-AK511
How it was run: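 Fluorimetric read-out (Ex 390, Em 460) after a 60 min 37° C enzyme reaction and 30 min 37° C developer step. Tested levels: 0.1-1000 nM (0.1, 1, 10, 100, 1000) on recombinant human HDAC6; 100, 1000 and 10000 nM on HDAC1 kit enzyme.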

HDAC6 human recombinant = biological target: T2, HDAC6 human recombinant (Homo sapiens, UniProt Q9UBN7); assay: HDAC enzyme activity inhibition (in vitro), HDAC6 assay; type: biochemical
T2 construct: purchased Calbiochem 382180
T2 sequence (Q9UBN7 1-1215): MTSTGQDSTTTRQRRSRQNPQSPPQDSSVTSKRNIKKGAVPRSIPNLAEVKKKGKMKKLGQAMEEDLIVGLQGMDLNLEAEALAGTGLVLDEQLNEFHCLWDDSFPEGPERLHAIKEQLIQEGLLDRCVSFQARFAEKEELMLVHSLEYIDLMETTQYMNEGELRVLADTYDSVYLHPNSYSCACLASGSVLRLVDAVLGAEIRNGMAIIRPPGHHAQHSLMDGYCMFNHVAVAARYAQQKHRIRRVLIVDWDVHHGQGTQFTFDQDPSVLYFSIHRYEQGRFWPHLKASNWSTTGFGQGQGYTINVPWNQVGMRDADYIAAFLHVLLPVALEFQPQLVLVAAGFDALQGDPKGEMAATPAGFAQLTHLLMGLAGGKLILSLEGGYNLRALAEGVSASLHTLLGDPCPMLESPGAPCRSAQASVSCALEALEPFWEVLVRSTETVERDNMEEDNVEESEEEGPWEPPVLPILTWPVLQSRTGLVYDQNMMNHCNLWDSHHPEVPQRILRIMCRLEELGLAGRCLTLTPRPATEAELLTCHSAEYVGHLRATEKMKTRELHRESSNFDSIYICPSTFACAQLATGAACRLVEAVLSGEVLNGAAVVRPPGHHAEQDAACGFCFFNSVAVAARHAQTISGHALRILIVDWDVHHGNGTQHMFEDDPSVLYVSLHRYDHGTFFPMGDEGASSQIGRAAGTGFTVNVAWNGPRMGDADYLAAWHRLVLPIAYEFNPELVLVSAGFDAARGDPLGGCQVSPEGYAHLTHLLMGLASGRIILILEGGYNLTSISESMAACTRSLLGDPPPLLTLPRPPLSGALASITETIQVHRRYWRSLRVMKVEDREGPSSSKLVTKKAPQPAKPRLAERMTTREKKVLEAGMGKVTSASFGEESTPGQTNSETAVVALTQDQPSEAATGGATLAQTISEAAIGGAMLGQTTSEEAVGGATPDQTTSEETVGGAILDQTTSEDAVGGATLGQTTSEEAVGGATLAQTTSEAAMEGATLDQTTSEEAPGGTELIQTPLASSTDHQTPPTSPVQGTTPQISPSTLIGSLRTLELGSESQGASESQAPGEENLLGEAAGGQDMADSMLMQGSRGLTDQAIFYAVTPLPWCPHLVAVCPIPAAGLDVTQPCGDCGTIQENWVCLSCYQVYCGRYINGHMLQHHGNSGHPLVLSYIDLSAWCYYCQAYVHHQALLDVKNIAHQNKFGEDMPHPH
How it was run: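 Fluorescence (Ex 390, Em 460) read after a 37° C, 60 min enzyme reaction and a further 30 min developer step at 37° C. Uses recombinant human HDAC6; HDAC1 arm dosed at 100, 1000, 10000 nM.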

[1] = samples at 100, 1000 and 10000 nM, 37° C. 60 minutes, fluorescence Ex 390, Em 460, read-out: HDAC1 IC50
[2] = samples at 0.1, 1, 10, 100 and 1000 nM, 37° C. 60 minutes, fluorescence Ex 390, Em 460, read-out: HDAC6 IC50

T1 sequence (Q13547 whole entry): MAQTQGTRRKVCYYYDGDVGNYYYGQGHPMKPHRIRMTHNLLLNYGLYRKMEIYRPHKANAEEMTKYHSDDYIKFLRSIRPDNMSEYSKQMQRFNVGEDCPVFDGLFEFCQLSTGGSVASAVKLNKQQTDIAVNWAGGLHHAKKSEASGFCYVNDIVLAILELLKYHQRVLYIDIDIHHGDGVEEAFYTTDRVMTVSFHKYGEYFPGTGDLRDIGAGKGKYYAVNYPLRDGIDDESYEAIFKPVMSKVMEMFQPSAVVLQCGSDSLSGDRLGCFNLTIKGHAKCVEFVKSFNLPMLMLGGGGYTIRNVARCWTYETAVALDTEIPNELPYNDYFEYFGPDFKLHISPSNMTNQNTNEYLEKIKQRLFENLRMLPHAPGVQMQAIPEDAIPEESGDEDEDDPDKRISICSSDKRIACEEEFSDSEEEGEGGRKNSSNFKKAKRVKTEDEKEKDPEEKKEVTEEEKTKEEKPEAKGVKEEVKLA

| IC50 (HDAC1; [1]) | IC50 (HDAC6 human recombinant; [2]) | SMILES | IC50 (HDAC1) | IC50 (HDAC6 human recombinant) |
| --- | --- | --- | --- | --- |
| > 10000 nM | 39 nM | O=c1n(Cc2ccc(-c3nnc(C(F)F)o3)cn2)c2cc(F)ccc2n1C1CCN(C2CCOCC2)CC1 [Compound 55, 3-((5-(5-(difluoromethyl)-1,3,4-oxadiazole-2-yl)pyridine-2-yl)methyl)-5-fluoro-1-(1-(tetrahydro-2H-pyran-4-yl)piperidine-4-yl)-1,3-dihydro-2H-benzo[d]imidazole-2-one] |  |  |
| > 10000 nM | 34 nM | COCC(C)N1CCC(n2c(=O)n(Cc3ccc(-c4nnc(C(F)F)o4)cn3)c3cc(F)ccc32)CC1 (stereo not drawn) [Compound 56, 3-((5-(5-(difluoromethyl)-1,3,4-oxadiazole-2-yl)pyridine-2-yl)methyl)-5-fluoro-1-(1-(1-methoxypropane-2-yl)piperidine-4-yl)-1,3-dihydro-2H-benzo[d]imidazole-2-one] |  |  |
| > 10000 nM | 31 nM | CC(=O)N1CCC(n2c(=O)n(Cc3ccc(-c4nnc(C(F)F)o4)cn3)c3cc(F)ccc32)CC1 [Compound 60, 1-(1-acetylpiperidine-4-yl)-3-((5-(5-(difluoromethyl)-1,3,4-oxadiazole-2-yl)pyridine-2-yl)methyl)-5-fluoro-1,3-dihydro-2H-benzo[d]imidazole-2-one] |  |  |
| > 10000 nM | 259 nM | O=C(c1ccc(C(F)(F)F)cc1)N1CCC(n2c(=O)n(Cc3ccc(-c4nnc(C(F)F)o4)cn3)c3cc(F)ccc32)CC1 [Compound 62, 3-((5-(5-(difluoromethyl)-1,3,4-oxadiazole-2-yl)pyridine-2-yl)methyl)-5-fluoro-1-(1-(4-(trifluoromethyl)benzoyl)piperidine-4-yl)-1,3-dihydro-2H-benzo[d]imidazole-2-one] |  |  |

Continued, compound first:

| SMILES | IC50 (HDAC1; [1]) | IC50 (HDAC6 human recombinant; [2]) | IC50 (HDAC1) | IC50 (HDAC6 human recombinant) |
| --- | --- | --- | --- | --- |
| O=c1n(Cc2ccc(-c3nnc(C(F)F)o3)cn2)c2cc(F)ccc2n1C1CCN(C2CCSCC2)CC1 [Compound 57, 3-((5-(5-(difluoromethyl)-1,3,4-oxadiazole-2-yl)pyridine-2-yl)methyl)-5-fluoro-1-(1-(tetrahydro-2H-thiopyran-4-yl)piperidine-4-yl)-1,3-dihydro-2H-benzo[d]imidazole-2-one] | > 10000 nM | 36 nM |  |  |
| O=c1n(Cc2ccc(-c3nnc(C(F)F)o3)cn2)c2cc(F)ccc2n1C1CCN(C2CCC3(CC2)OCCO3)CC1 [Compound 58, 1-(1-(1,4-dioxaspiro[4.5]decane-8-yl)piperidine-4-yl)-3-((5-(5-(difluoromethyl)-1,3,4-oxadiazole-2-yl)pyridine-2-yl)methyl)-5-fluoro-1,3-dihydro-2H-benzo[d]imidazole-2-one] | > 10000 nM | 28 nM |  |  |
| CC(=O)N1CCC(N2CCC(n3c(=O)n(Cc4ccc(-c5nnc(C(F)F)o5)cn4)c4cc(F)ccc43)CC2)CC1 [Compound 59, 1-(1′-acetyl-[1,4′-bipiperidine]-4-yl)-3-((5-(5-(difluoromethyl)-1,3,4-oxadiazole-2-yl)pyridine-2-yl)methyl)-5-fluoro-1,3-dihydro-2H-benzo[d]imidazole-2-one] |  |  | > 10000 nM | 38 nM |
| O=C(N1CCOCC1)N1CCC(n2c(=O)n(Cc3ccc(-c4nnc(C(F)F)o4)cn3)c3cc(F)ccc32)CC1 [Compound 61, 3-((5-(5-(difluoromethyl)-1,3,4-oxadiazole-2-yl)pyridine-2-yl)methyl)-5-fluoro-1-(1-(morpholine-4-carbonyl)piperidine-4-yl)-1,3-dihydro-2H-benzo[d]imidazole-2-one] | > 10000 nM | 32 nM |  |  |
| O=C(c1ccncc1)N1CCC(n2c(=O)n(Cc3ccc(-c4nnc(C(F)F)o4)cn3)c3cc(F)ccc32)CC1 [Compound 63, 3-((5-(5-(difluoromethyl)-1,3,4-oxadiazole-2-yl)pyridine-2-yl)methyl)-5-fluoro-1-(1-isonicotinoylpiperidine-4-yl)-1,3-dihydro-2H-benzo[d]imidazole-2-one] | > 10000 nM | 57 nM |  |  |
